In experiment [1] the target is T1, membrane-bound E. coli F1F0-ATPase (Escherichia coli, UniProt P0ABB4). The experiment can be described thus: Combination effect of PLA2 and melittin on membrane-bound E. coli F1F0-ATPase. Conditions: read-out: remaining enzymatic activity, melittin alone.
The target in experiment [2] is T1, membrane-bound E. coli F1F0-ATPase. Briefly: biochemical. On the set-up: endogenous in cells; host or cells: Escherichia coli culture; crude membrane pellet after EDTA, freeze-thaw, sonication and centrifugation; species or system Escherichia coli (ATCC 25922). The protocol:
The supernatant is then removed.
Assays for each phosphate concentration were done in triplicate.
All tests were performed in triplicate.
IC50 values were determined using the PRISM® 5.04 (GraphPad software, San Diego, CA, USA) software, from a dose-response curve established by drawing the percentage of enzymatic activity (%) at different concentrations of the inhibitor expressed in terms of a log (inhibitor) (μM).
Different volumes of the stock solution of venom prepared in the buffer tris-HCl (pH = 8.5; 50 mM) are added to the reaction medium containing the transmembrane enzyme followed by ATP at 100 μM. […] The reaction is then stopped by the addition of 1% SDS (v/v). […] All assays were performed in triplicate.
Different volumes of the stock solution of phospholipase A2 are added to the reaction medium containing the isolated membrane-bound enzyme followed by ATP at 100 μM.
The effect of melittin on the membrane-bound F1F0-ATPase is studied as described in Section 4.7. Different volumes of the stock solution of melittin are added to the reaction medium containing the enzyme followed by ATP at 100 μM. […] The reaction is then stopped using a solution of 1% SDS (v/v). […] IC50 values were obtained from the dose-response curve using PRISM® 5.04 software. All assays were done in triplicate.

Experiment [3] has the same target. Details: endogenous in cells; host or cells: Escherichia coli culture; crude membrane pellet after EDTA, freeze-thaw, sonication and centrifugation. Conditions: literature value, ref [7]; cited from earlier work. From the text: Figure 2 (a) Dose-response curve representing the enzymatic activity (%) of E. coli F1F0-ATPase as a function of the log of the concentration of thymoquinone, quercetin and melittin, respectively. Error bars show the standard deviation obtained from experiments done in triplicate; (b) Comparison between the IC50 values of the reference inhibitors obtained by the developed method and from the literature. […] Good repeatabilities were obtained with relative standard deviations (RSD) below 6% and R^2 > 0.99. Likewise, melittin is found to be a strong potent inhibitor of E. coli F1F0-ATPase with its low IC50 value in the micromolar range.

SMILES strings stand for the structures. Like-named read-outs stand apart in the source and are kept apart here.

In the case of `CC[C@H](C)[C@H](NC(=O)CN)C(=O)NCC(=O)N[C@@H](C)C(=O)N[C@H](C(=O)N[C@@H](CC(C)C)C(=O)N[C@@H](CCCCN)C(=O)N[C@H](C(=O)N[C@@H](CC(C)C)C(=O)N[C@H](C(=O)N[C@H](C(=O)NCC(=O)N[C@@H](CC(C)C)C(=O)N1CCC[C@H]1C(=O)N[C@@H](C)C(=O)N[C@@H](CC(C)C)C(=O)N[C@H](C(=O)N[C@@H](CO)C(=O)N[C@@H](Cc1c[nH]c2ccccc12)C(=O)N[C@H](C(=O)N[C@@H](CCCCN)C(=O)N[C@@H](CCCNC(=N)N)C(=O)N[C@@H](CCCCN)C(=O)N[C@@H](CCCNC(=N)N)C(=O)N[C@@H](CCC(N)=O)C(=O)N[C@@H](CCC(N)=O)C(N)=O)[C@@H](C)CC)[C@@H](C)CC)[C@@H](C)O)[C@@H](C)O)C(C)C)C(C)C` [melittin], the remaining activity (in general, the signal under treatment as a percentage of the control signal) at 9 µM in experiment [1] came to 51.7%. For the same compound, the IC50 (usually the concentration needed to halve the response being measured) in experiment [2] stood at 9.03 ± 0.27 µM. In addition, in experiment [2] (plateau of concentration curve, ATP 100 μM, 40 min, 37 °C, pH 8.5, triplicate), the maximum inhibition result was “about 80%”.

Consider `CC1=CC(=O)C(C(C)C)=CC1=O` [Thymoquinone, thymoquinone], for which the IC50 in experiment [2] (read-out: IC50) worked out at 57.5 ± 2.99 µM.

As for `O=c1c(O)c(-c2ccc(O)c(O)c2)oc2cc(O)cc(O)c12` [Quercetin, quercetin], the IC50 was 30 ± 1.5 µM in experiment [2] (read-out: IC50) and 33 µM in experiment [3].

(Values after paper PMC7699247 (Antibiotics, 2020).)
